Experiments:
Format in all cases: biochemical
SETD6 = molecular target: T1, SETD6 (Homo sapiens, UniProt Q8TBK2); assay: HMT panel selectivity: SETD6
T1 sequence (Q8TBK2 1-473): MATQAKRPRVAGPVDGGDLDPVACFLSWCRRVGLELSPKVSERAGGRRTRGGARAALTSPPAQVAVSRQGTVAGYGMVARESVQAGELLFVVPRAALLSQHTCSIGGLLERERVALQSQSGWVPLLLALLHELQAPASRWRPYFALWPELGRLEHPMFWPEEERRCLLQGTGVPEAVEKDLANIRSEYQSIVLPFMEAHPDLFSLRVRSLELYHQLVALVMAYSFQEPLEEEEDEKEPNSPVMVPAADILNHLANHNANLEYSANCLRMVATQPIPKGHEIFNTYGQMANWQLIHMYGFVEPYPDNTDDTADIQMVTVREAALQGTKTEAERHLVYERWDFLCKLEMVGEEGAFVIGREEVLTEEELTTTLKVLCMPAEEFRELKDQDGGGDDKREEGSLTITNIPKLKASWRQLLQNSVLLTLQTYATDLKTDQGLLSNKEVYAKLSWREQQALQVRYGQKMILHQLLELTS
Description: (§1) Note: for EZH2, EZH2/EED/SUZ12/RBAP48/AEBP2 was used in the assay; for EZH1, EZH1/EED/SUZ12/RBAP48/AEBP2 was used in the assay; for MLL, MLL/WDR5/RBBP5/ASH2L/ was use in the assay. a, H3K27me0 peptide was used as substrate for both EZH2 and EZH1 activity; b, H3K27me1 peptide was used as substrate for both EZH2 and EZH1 activity. All HMT reactions were performed as described previously. ref: Proc Natl Acad Sci U S A. 2012 Dec 26;109(52):21360-5.

PRMT8 = PRMT8 (Homo sapiens, UniProt Q9NR22); assay: HMT panel selectivity: PRMT8
Sequence of PRMT8 (Q9NR22 whole entry, species assumed): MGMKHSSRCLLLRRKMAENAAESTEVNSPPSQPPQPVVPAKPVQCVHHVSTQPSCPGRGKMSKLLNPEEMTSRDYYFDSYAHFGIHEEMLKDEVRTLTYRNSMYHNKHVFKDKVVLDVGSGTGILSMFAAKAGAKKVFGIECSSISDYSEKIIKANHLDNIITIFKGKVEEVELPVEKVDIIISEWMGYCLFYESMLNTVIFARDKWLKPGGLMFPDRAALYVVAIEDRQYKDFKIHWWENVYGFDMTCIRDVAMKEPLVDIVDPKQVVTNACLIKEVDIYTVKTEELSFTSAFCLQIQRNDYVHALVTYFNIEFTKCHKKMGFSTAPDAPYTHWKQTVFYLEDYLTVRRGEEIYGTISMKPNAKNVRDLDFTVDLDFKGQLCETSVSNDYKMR
Description: as §1

[1] = molecular target: EZH2 (EZH2/EED/SUZ12/RBAP48/AEBP2) (Homo sapiens, UniProt O75530+Q15910); assay: HMT panel selectivity: EZH2
Sequence of EZH2 (EZH2/EED/SUZ12/RBAP48/AEBP2) (Q15910 whole entry): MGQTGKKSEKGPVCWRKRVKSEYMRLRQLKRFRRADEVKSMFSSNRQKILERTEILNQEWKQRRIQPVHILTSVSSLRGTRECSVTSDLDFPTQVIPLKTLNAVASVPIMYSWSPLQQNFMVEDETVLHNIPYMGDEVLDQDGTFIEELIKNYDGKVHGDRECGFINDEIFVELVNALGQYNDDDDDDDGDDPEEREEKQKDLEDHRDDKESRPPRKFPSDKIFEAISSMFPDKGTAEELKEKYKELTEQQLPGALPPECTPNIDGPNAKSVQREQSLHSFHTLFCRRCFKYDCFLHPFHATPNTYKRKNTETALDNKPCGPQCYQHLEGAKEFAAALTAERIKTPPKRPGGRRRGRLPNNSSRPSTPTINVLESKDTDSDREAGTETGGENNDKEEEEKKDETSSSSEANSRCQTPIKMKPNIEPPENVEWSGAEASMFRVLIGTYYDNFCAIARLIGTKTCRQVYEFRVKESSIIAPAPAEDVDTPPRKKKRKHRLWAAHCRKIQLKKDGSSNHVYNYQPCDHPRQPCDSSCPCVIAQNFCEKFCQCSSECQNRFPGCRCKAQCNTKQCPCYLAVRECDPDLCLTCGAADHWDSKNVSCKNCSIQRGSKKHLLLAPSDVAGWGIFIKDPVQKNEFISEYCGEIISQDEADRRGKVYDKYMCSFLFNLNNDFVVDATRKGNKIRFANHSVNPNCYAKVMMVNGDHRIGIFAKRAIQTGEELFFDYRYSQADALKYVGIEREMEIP
Sequence of EZH2 (EZH2/EED/SUZ12/RBAP48/AEBP2) (O75530 whole entry): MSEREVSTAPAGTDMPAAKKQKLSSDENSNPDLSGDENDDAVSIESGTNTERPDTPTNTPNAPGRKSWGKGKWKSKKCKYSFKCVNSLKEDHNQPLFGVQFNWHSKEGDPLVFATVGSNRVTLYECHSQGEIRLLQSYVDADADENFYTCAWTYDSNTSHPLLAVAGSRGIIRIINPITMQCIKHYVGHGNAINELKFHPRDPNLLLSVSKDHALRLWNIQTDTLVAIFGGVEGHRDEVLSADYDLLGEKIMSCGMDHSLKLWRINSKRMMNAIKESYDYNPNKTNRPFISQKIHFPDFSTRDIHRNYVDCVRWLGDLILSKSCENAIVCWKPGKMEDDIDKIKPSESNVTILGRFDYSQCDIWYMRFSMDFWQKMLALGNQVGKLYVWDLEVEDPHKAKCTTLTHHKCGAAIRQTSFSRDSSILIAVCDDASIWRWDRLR
Sequence of EZH2 (EZH2/EED/SUZ12/RBAP48/AEBP2) (Q15022 whole entry partner): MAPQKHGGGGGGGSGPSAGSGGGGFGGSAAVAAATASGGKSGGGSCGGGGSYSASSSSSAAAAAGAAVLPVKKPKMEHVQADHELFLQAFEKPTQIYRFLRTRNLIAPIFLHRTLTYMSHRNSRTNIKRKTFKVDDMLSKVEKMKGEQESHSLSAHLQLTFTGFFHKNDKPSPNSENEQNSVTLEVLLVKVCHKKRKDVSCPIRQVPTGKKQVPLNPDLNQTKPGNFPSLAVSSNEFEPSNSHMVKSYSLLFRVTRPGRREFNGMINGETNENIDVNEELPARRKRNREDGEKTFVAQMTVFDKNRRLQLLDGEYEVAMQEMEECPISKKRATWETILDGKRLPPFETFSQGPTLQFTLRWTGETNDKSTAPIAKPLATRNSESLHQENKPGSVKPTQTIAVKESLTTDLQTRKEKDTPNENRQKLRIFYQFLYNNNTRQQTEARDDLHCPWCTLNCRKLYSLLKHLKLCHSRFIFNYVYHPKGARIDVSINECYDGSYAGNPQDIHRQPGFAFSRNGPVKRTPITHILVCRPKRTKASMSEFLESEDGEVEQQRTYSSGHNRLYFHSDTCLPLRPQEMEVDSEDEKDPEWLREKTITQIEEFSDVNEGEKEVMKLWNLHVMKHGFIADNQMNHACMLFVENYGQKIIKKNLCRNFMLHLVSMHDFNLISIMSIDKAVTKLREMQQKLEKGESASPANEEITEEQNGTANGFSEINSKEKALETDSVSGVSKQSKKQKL
Sequence of EZH2 (EZH2/EED/SUZ12/RBAP48/AEBP2) (Q09028 whole entry partner): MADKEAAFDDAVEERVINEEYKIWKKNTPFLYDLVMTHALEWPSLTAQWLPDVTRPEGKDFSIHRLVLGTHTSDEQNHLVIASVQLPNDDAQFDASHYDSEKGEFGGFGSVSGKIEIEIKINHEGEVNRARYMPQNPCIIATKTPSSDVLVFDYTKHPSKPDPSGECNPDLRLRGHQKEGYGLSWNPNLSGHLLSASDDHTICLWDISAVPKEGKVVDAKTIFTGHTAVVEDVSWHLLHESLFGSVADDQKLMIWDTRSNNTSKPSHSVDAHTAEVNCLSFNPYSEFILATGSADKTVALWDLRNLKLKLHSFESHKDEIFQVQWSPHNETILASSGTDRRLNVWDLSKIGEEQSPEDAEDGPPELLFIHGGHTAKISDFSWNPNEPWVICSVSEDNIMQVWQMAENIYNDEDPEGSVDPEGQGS
Sequence of EZH2 (EZH2/EED/SUZ12/RBAP48/AEBP2) (Q6ZN18 whole entry partner): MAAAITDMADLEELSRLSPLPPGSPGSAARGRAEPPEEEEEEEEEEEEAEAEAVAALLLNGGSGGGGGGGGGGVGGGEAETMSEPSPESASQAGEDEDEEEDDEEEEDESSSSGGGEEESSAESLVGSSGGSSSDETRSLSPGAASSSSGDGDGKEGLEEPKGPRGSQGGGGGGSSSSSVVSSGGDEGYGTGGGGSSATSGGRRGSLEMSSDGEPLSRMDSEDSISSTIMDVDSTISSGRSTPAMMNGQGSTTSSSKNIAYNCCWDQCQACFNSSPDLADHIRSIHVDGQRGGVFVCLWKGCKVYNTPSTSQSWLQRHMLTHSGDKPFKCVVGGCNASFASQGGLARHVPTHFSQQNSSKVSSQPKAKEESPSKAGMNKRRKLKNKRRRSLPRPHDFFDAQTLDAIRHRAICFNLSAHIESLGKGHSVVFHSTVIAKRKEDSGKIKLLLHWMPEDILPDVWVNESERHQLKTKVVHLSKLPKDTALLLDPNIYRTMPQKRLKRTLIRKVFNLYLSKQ
From the text: This assay employs liquid chromatography mass spectrometry technology using peptide or nucleosome as substrate and then detects the formation of the co-product SAH [11, 25].
as §1, with “activity.” for “activity. All HMT reactions were performed as described previously. ref: Proc Natl Acad Sci U S A. 2012 Dec 26;109(52):21360-5.”

PRMT5/MEP50 = PRMT5/MEP50 (Homo sapiens, UniProt O14744); assay: HMT panel selectivity: PRMT5/MEP50
Description: as §1

PRMT1 = PRMT1 (Homo sapiens, UniProt Q99873); assay: HMT panel selectivity: PRMT1
Sequence of PRMT1 (Q99873 whole entry, species assumed): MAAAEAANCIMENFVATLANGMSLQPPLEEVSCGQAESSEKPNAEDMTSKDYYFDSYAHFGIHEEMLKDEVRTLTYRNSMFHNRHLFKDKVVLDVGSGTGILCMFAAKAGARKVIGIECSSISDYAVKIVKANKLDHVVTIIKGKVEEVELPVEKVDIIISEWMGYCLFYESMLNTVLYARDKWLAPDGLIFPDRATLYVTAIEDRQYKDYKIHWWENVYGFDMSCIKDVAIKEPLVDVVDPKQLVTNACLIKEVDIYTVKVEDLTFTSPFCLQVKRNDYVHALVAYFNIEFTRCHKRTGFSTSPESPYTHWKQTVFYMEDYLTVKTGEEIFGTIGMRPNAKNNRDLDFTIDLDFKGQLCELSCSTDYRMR
Description: as §1

DNMT1 = DNMT1 (Homo sapiens, UniProt P26358); assay: HMT panel selectivity: DNMT1
Description: as §1

Suv39H2 = Suv39H2 (Homo sapiens, UniProt Q9H5I1); assay: HMT panel selectivity: Suv39H2
Sequence of Suv39H2 (Q9H5I1 whole entry, species assumed): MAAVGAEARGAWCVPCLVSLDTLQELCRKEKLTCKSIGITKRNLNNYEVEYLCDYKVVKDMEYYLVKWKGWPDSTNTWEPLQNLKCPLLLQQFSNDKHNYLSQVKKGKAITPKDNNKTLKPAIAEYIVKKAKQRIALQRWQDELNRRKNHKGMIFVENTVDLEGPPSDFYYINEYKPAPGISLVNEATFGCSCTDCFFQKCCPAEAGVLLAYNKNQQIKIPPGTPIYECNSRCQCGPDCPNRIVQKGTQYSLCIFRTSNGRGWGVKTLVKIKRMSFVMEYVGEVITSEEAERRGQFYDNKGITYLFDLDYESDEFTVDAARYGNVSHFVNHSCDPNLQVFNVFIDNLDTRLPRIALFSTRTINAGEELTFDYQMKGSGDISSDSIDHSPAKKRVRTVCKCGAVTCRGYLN
Description: as §1

NSD3 = molecular target: T2, NSD3 (Homo sapiens, UniProt Q9BZ95); assay: HMT panel selectivity: NSD3
T2 sequence (Q9BZ95 1-1437): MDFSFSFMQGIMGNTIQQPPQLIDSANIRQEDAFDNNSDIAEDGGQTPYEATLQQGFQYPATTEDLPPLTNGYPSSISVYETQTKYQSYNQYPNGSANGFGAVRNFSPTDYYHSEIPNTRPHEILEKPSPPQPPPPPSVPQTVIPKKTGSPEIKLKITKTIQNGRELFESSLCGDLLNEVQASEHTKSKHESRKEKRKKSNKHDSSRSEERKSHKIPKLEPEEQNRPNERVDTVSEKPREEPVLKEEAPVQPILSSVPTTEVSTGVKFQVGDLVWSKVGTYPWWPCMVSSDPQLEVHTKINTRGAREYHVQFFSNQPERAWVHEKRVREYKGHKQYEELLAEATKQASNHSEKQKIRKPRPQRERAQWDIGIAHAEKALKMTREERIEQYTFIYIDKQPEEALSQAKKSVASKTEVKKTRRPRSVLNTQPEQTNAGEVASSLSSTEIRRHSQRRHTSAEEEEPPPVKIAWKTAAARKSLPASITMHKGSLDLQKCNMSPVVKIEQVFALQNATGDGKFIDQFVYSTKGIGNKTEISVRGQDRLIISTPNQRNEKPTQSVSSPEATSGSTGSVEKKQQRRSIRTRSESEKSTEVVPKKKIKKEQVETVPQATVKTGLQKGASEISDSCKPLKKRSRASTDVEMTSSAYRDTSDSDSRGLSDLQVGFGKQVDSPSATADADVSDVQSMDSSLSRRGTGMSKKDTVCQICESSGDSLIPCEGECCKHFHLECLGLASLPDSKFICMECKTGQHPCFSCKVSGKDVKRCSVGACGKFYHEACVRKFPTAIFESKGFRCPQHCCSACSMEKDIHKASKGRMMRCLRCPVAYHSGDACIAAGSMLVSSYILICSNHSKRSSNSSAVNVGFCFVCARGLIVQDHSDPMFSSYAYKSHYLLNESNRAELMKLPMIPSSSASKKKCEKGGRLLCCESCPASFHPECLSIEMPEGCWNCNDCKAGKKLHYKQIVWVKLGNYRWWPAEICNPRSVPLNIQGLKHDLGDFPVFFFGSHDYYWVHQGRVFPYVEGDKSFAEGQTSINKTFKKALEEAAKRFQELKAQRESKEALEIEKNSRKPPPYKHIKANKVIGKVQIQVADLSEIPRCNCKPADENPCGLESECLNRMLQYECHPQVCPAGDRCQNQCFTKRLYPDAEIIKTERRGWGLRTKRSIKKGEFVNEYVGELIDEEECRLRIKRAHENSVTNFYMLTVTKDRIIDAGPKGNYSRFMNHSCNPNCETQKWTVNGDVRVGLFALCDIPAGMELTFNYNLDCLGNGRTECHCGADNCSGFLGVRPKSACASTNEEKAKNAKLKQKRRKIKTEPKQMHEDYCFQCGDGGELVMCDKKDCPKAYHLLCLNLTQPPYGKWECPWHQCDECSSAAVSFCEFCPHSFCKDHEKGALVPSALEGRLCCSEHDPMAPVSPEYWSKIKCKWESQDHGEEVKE
Description: as §1

SMILES	IC50 (SETD6)	IC50 (PRMT8)	IC50 [1]	IC50 (PRMT5/MEP50)	IC50 (PRMT1)	IC50 (DNMT1)	IC50 (Suv39H2)	IC50 (NSD3)
N#Cc1c2c(c3nncn3c1NCc1ccco1)CN(Cc1ccccc1)CC2 [EED162]	> 100 µM	> 100 µM	2.2 µM	> 100 µM	> 100 µM	> 100 µM	> 100 µM	> 100 µM
COc1cccc(CC2CC3Cc4c(cccc4OC)CC3N(C)C2)c1 (centres unmarked) [EED210]	> 100 µM	> 100 µM		> 100 µM	> 100 µM	> 100 µM	> 100 µM	> 100 µM
COc1cc(-c2cc3n(c(=N)c2C#N)CCc2cc4c(cc2-3)OCO4)ccc1OC(C)C [EED396]	> 100 µM	> 100 µM	87 µM	> 100 µM	> 100 µM	> 100 µM	> 100 µM	> 100 µM
Cc1cc(C)n(-c2cc(N3CCc4ccccc4C3)ccc2[N+](=O)[O-])n1 [EED666]	> 100 µM	> 100 µM	99 µM	> 100 µM	> 100 µM	> 100 µM	> 100 µM	> 100 µM
COc1ccccc1CN1CC(c2cn(C)c3ccccc23)C(N(C)C)C1 (centres unmarked) [EED709]	> 100 µM	> 100 µM		> 100 µM	> 100 µM	> 100 µM	> 100 µM	> 100 µM

From paper PMC5224880, “Discovery and Molecular Basis of a Diverse Set of Polycomb Repressive Complex 2 Inhibitors Recognition by EED” (PLoS ONE, 2017)
